The text below walks through data of US11000033B2, “Ketone or oxime compound, and herbicide” (NISSAN CHEMICAL CORPORATION, priority 2014, dated 2021).

What all share (format): in vivo
One data set relates to Amaranthus retroflexus. Description: Test Example 5: herbicidal effect by foliage application, plastic box (symbol N). The conditions noted are these: 320 g/ha, 3 weeks after application. The procedure, abridged:
(§1)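 Effect is rated 3 weeks after a foliar spray of water-diluted emulsion concentrate at a predetermined herbicide amount. Plants had grown 14 days in a 25° C. to 30° C. greenhouse from seed in sterilized diluvial soil.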

In data set [1] the test system is Setaria viridis. Description: Test Example 4: herbicidal effect by soil treatment (symbol G). The conditions noted are these: for G: Setaria viridis, herbicidal effect grade: 320 g/ha. The procedure, abridged: (§2)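 Seeds were sown in sterilized diluvial soil, covered with about 1.5 cm of soil, and the soil surface was sprayed with a water-diluted emulsion of the compound at a predetermined rate. Plants grew in a greenhouse at 25° C. to 30° C.; effects were scored visually 3 weeks after application.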

The test system of a further data set is rice. Description: Test Example 4: effect on crop by soil treatment (symbol b). The note with it: for b: directly sowed rice plant, effect grade on crop: 320 g/ha. The method in brief:
(§3)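 Crop seeds, among them rice, wheat, beet and rapeseed, were sown in sterilized diluvial soil and covered with about 1.5 cm of soil. Boxes were kept in a greenhouse at 25° C. to 30° C. for plant growth.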

For data set [2], the system named is Setaria viridis. Briefly: Test Example 5: herbicidal effect by foliage application, plastic box (symbol G). The note with it: 320 g/ha, 3 weeks after application. The method in brief:
as §1

A further data set has as its system wheat. Briefly: Test Example 4: effect on crop by soil treatment (symbol e). The note with it: for e: wheat, effect grade on crop: 320 g/ha. The method in brief:
as §3

Data set [3] relates to Veronica persica. Description: Test Example 4: herbicidal effect by soil treatment (symbol R). The note with it: for R: Veronica persica, herbicidal effect grade: 320 g/ha. The method in brief: as §2
For a further data set, the system named is corn. Briefly: Test Example 4: effect on crop by soil treatment (symbol c). The note with it: for c: corn, effect grade on crop: 320 g/ha. The method in brief:
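Grown at 25° C. to 30° C. in a greenhouse, the crops came from seed sown spot-wise in sterilized diluvial soil under roughly 1.5 cm of covering soil.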

The test system of data set [4] is Echinochloa oryzacola Vasing. Description: Test Example 1: herbicidal activity, application before weed generation in submerged conditions (symbol A). The conditions noted are these: application herbicide amount 320 g/ha. The procedure, abridged: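 Weeds are sown into submerged alluvial soil alongside transplanted 2.5-leaf rice, and the compound, as an emulsion diluted to a set rate, is applied onto the water before emergence. Rating on the 0–5 herbicidal-ratio scale follows 3 weeks of greenhouse growth at 25–30 °C.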

Data set [5] concerns Alopecurus myosuroides. Briefly: Test Example 4: herbicidal effect by soil treatment (symbol J). The conditions noted are these: for J: Alopecurus myosuroides, herbicidal effect grade: 320 g/ha. The method in brief: as §2
Data set [6] has as its system soybean. Briefly: Test Example 4: effect on crop by soil treatment (symbol d). The conditions noted are these: for d: soybean, effect grade on crop: 320 g/ha. The method in brief: as §3
The test system of the next data set is Apera spica-venti. Briefly: Test Example 4: herbicidal effect by soil treatment (symbol L). The conditions noted are these: for L: Apera spica-venti, herbicidal effect grade: 320 g/ha. The procedure, abridged: as §2
The next data set relates to Avena fatua. Briefly: Test Example 5: herbicidal effect by foliage application, plastic box (symbol I). The note with it: 320 g/ha, 3 weeks after application. The procedure, abridged:
as §1

In a further data set the test system is Cyperus difformis. Briefly: Test Example 3: herbicidal effect by foliage application, Wagner pot (symbol E). The conditions noted are these: application herbicide amount 320 g/ha. The method in brief: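 Foliar spray of water-diluted emulsion formulation at a predetermined herbicide amount onto 14-day-old plants in flooded alluvial soil (water depth 0.1–0.5 cm), greenhouse 25–30 °C; rice sown alongside. Scored 3 wk post-application on set criteria.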

For data set [7], the system named is Veronica persica. Briefly: Test Example 5: herbicidal effect by foliage application, plastic box (symbol R). The note with it: 320 g/ha, 3 weeks after application. The method in brief: as §1
Data set [8] relates to Lolium multiflorum Lam. Description: Test Example 5: herbicidal effect by foliage application, plastic box (symbol K). The note with it: 320 g/ha, 3 weeks after application. The method in brief:
as §1

The subject of data set [9] is soybean. Description: Test Example 5: effect on crop by foliage application, plastic box (symbol d). The conditions noted are these: 320 g/ha, 3 weeks after application. The method in brief:
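Sterilized diluvial soil, plastic box (21 × 13 × 7 cm); spot sowing, ~1.5 cm soil cover; greenhouse 25–30° C.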

The test system of the next data set is Galium spurium. Briefly: Test Example 4: herbicidal effect by soil treatment (symbol Q). The conditions noted are these: for Q: Galium spurium, herbicidal effect grade: 320 g/ha. The procedure, abridged: as §2
Data set [10] deals with Lolium multiflorum Lam. Description: Test Example 4: herbicidal effect by soil treatment (symbol K). The conditions noted are these: for K: Lolium multiflorum Lam., herbicidal effect grade: 320 g/ha. The procedure, abridged:
as §2

Data set [11] deals with Alopecurus myosuroides. Description: Test Example 5: herbicidal effect by foliage application, plastic box (symbol J). The conditions noted are these: 320 g/ha, 3 weeks after application. The procedure, abridged:
as §1

Where [12] appears, read: application herbicide amount 320 g/ha.

With `CC(CC1CC(O)=C(c2c(C)cc(C)cc2C)C1=O)=NOCc1ccccc1C(F)(F)F` (stereo not drawn) [1-116], the “N: Amaranthus retroflexus, herbicidal effect (criteria 0-5)” value with Amaranthus retroflexus is 0 (Herbicidal ratio of 5% or lower (almost no effect)). Moreover, the “G: Setaria viridis, herbicidal effect grade” value with Setaria viridis [1] was 3 (Herbicidal ratio of 40% or higher and lower than 70%). In the data set with rice, the “b: directly sowed rice plant, effect grade on crop” value was 1 (Herbicidal ratio of 5% or higher and lower than 20%). Besides, in the data set with Setaria viridis [2], the “G: Setaria viridis, herbicidal effect (criteria 0-5)” value is recorded as 5 (Herbicidal ratio of 90% or more (almost completely withered)). The “e: wheat, effect grade on crop” value in the data set with wheat is on record as 0 (Herbicidal ratio of 5% or lower (almost no effect)). Besides, the “R: Veronica persica, herbicidal effect grade” value with Veronica persica [3] is 0 (Herbicidal ratio of 5% or lower (almost no effect)). The “c: corn, effect grade on crop” value with corn is 0 (Herbicidal ratio of 5% or lower (almost no effect)). For the same compound, in data set [4], the “Herbicidal effect grade, A: Echinochloa oryzacola Vasing.” value was 5 (Herbicidal ratio of 90% or more (almost completely withered)). The “J: Alopecurus myosuroides, herbicidal effect grade” value in the data set with Alopecurus myosuroides [5] was 4 (Herbicidal ratio of 70% or higher and lower than 90%). The “d: soybean, effect grade on crop” value in the data set on soybean [6] is on record as 0 (Herbicidal ratio of 5% or lower (almost no effect)). Further, the “L: Apera spica-venti, herbicidal effect grade” value in the data set with Apera spica-venti is 3 (Herbicidal ratio of 40% or higher and lower than 70%). Further, the “I: Avena fatua, herbicidal effect (criteria 0-5)” value in the data set with Avena fatua was 4 (Herbicidal ratio of 70% or higher and lower than 90%). Further, in the data set on Cyperus difformis, the “herbicidal effect on E, grade 0-5” value was 4 (Herbicidal ratio of 70% or higher and lower than 90%). In addition, the “R: Veronica persica, herbicidal effect (criteria 0-5)” value with Veronica persica [7] is 3 (Herbicidal ratio of 40% or higher and lower than 70%). Also, in the data set with Lolium multiflorum Lam. [8], the “K: Lolium multiflorum Lam., herbicidal effect (criteria 0-5)” value is 5 (Herbicidal ratio of 90% or more (almost completely withered)). Also, the “d: soybean, effect on crop (criteria 0-5)” value in the data set with soybean [9] is 3 (Herbicidal ratio of 40% or higher and lower than 70%). The “Q: Galium spurium, herbicidal effect grade” value in the data set with Galium spurium was 0 (Herbicidal ratio of 5% or lower (almost no effect)). The “K: Lolium multiflorum Lam., herbicidal effect grade” value in the data set with Lolium multiflorum Lam. [10] is 4 (Herbicidal ratio of 70% or higher and lower than 90%). In addition, the “J: Alopecurus myosuroides, herbicidal effect (criteria 0-5)” value in the data set on Alopecurus myosuroides [11] is 5 (Herbicidal ratio of 90% or more (almost completely withered)).
With `Cc1cc(Br)cc(C)c1C1=C(O)CC(CC(=O)C(C)C)C1=O` (racemic) [10-003], the “N: Amaranthus retroflexus, herbicidal effect grade” value in the data set on Amaranthus retroflexus is 0 (Herbicidal ratio of 5% or lower (almost no effect)). In addition, in the data set with Setaria viridis [1] (setting [12]), the “Herbicidal effect grade, G: Setaria viridis” value was 4 (Herbicidal ratio of 70% or higher and lower than 90%). Besides, the “Effect on crop grade, b: directly sowed rice plant” value in the data set with rice (setting [12]) was 4 (Herbicidal ratio of 70% or higher and lower than 90%). Moreover, the “G: Setaria viridis, herbicidal effect grade” value in the data set on Setaria viridis [2] was 5 (Herbicidal ratio of 90% or more (almost completely withered)). Besides, the “Effect on crop grade, e: wheat” value in the data set on wheat (setting [12]) was 0 (Herbicidal ratio of 5% or lower (almost no effect)). In addition, the “Herbicidal effect grade, R: Veronica persica” value in the data set on Veronica persica [3] (setting [12]) is on record as 0 (Herbicidal ratio of 5% or lower (almost no effect)). Moreover, the “Effect on crop grade, c: corn” value in the data set on corn (setting [12]) is 0 (Herbicidal ratio of 5% or lower (almost no effect)). Also, in data set [4], the “A (Echinochloa oryzacola Vasing.) herbicidal effect grade” value was 1 (Herbicidal ratio of 5% or higher and lower than 20%). The “Herbicidal effect grade, J: Alopecurus myosuroides” value in the data set on Alopecurus myosuroides [5] (setting [12]) is 3 (Herbicidal ratio of 40% or higher and lower than 70%). Also, in the data set with soybean [6] (setting [12]), the “Effect on crop grade, d: soybean” value is 0 (Herbicidal ratio of 5% or lower (almost no effect)). Further, in the data set with Apera spica-venti (setting [12]), the “Herbicidal effect grade, L: Apera spica-venti” value was 3 (Herbicidal ratio of 40% or higher and lower than 70%). For the same compound, the “I: Avena fatua, herbicidal effect grade” value in the data set with Avena fatua was 3 (Herbicidal ratio of 40% or higher and lower than 70%). The “E herbicidal effect grade” value in the data set on Cyperus difformis (Table 24) is listed as 0 (Herbicidal ratio of 5% or lower (almost no effect)). Further, in the data set on Veronica persica [7], the “R: Veronica persica, herbicidal effect grade” value is 0 (Herbicidal ratio of 5% or lower (almost no effect)). For the same compound, in the data set on Lolium multiflorum Lam. [8], the “K: Lolium multiflorum Lam., herbicidal effect grade” value was 4 (Herbicidal ratio of 70% or higher and lower than 90%). Besides, the “d: soybean, effect on crop grade” value with soybean [9] is listed as 0 (Herbicidal ratio of 5% or lower (almost no effect)). The “Herbicidal effect grade, Q: Galium spurium” value in the data set with Galium spurium (setting [12]) is 0 (Herbicidal ratio of 5% or lower (almost no effect)). Also, the “Herbicidal effect grade, K: Lolium multiflorum Lam.” value in the data set with Lolium multiflorum Lam. [10] (setting [12]) is 4 (Herbicidal ratio of 70% or higher and lower than 90%). The “J: Alopecurus myosuroides, herbicidal effect grade” value in the data set on Alopecurus myosuroides [11] is 3 (Herbicidal ratio of 40% or higher and lower than 70%).
`CON=C(C)CC1CC(OC(=O)c2cnoc2C2CC2)=C(c2c(C)cc(C)cc2C)C1=O` (stereo not drawn) [1-103]: the “N: Amaranthus retroflexus, herbicidal effect (criteria 0-5)” value in the data set with Amaranthus retroflexus is reported as 0 (Herbicidal ratio of 5% or lower (almost no effect)). For the same compound, in the data set with Setaria viridis [1], the “G: Setaria viridis, herbicidal effect grade” value is on record as 5 (Herbicidal ratio of 90% or more (almost completely withered)). Also, in the data set with rice, the “b: directly sowed rice plant, effect grade on crop” value is recorded as 5 (Herbicidal ratio of 90% or more (almost completely withered)). Besides, the “G: Setaria viridis, herbicidal effect (criteria 0-5)” value in the data set with Setaria viridis [2] is 5 (Herbicidal ratio of 90% or more (almost completely withered)). Moreover, the “e: wheat, effect grade on crop” value with wheat was 4 (Herbicidal ratio of 70% or higher and lower than 90%). The “R: Veronica persica, herbicidal effect grade” value in the data set with Veronica persica [3] was 0 (Herbicidal ratio of 5% or lower (almost no effect)). In addition, the “c: corn, effect grade on crop” value in the data set with corn is recorded as 5 (Herbicidal ratio of 90% or more (almost completely withered)). Besides, the “Herbicidal effect grade, A: Echinochloa oryzacola Vasing.” value in data set [4] is on record as 5 (Herbicidal ratio of 90% or more (almost completely withered)). In addition, in the data set on Alopecurus myosuroides [5], the “J: Alopecurus myosuroides, herbicidal effect grade” value is 5 (Herbicidal ratio of 90% or more (almost completely withered)). For the same compound, in the data set with soybean [6], the “d: soybean, effect grade on crop” value was 1 (Herbicidal ratio of 5% or higher and lower than 20%). Further, the “L: Apera spica-venti, herbicidal effect grade” value in the data set with Apera spica-venti is 4 (Herbicidal ratio of 70% or higher and lower than 90%). In addition, the “I: Avena fatua, herbicidal effect (criteria 0-5)” value with Avena fatua was 5 (Herbicidal ratio of 90% or more (almost completely withered)). For the same compound, the “herbicidal effect on E, grade 0-5” value with Cyperus difformis is listed as 5 (Herbicidal ratio of 90% or more (almost completely withered)). For the same compound, in the data set on Veronica persica [7], the “R: Veronica persica, herbicidal effect (criteria 0-5)” value was 3 (Herbicidal ratio of 40% or higher and lower than 70%). The “K: Lolium multiflorum Lam., herbicidal effect (criteria 0-5)” value in the data set on Lolium multiflorum Lam. [8] is 5 (Herbicidal ratio of 90% or more (almost completely withered)). Besides, the “d: soybean, effect on crop (criteria 0-5)” value with soybean [9] is 3 (Herbicidal ratio of 40% or higher and lower than 70%). Further, the “Q: Galium spurium, herbicidal effect grade” value in the data set with Galium spurium is on record as 0 (Herbicidal ratio of 5% or lower (almost no effect)). Also, the “K: Lolium multiflorum Lam., herbicidal effect grade” value in the data set on Lolium multiflorum Lam. [10] was 5 (Herbicidal ratio of 90% or more (almost completely withered)). For the same compound, in the data set with Alopecurus myosuroides [11], the “J: Alopecurus myosuroides, herbicidal effect (criteria 0-5)” value is reported as 5 (Herbicidal ratio of 90% or more (almost completely withered)).
